Paper PMC5428354, “Screening of a natural compound library identifies emodin, a natural compound from Rheum palmatum Linn that inhibits DPP4” (PeerJ, 2017)
Read-outs that look alike come from different tables or passages of the source.

Target: DPP4 (Homo sapiens, UniProt P27487)
Assay: DPP4 activity assay (DPP4 inhibitor screening assay kit, Cayman);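 further: fluorescence read at excitation 360 nm and emission 460 nm after the enzyme reaction ran 30 min at 37 °C in a 96-well plate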
Assay type: biochemical
Set-up: purchased Cayman Chemical, Ann Arbor, MI, USA
Conditions: control mean 100.0; for remaining activity at 10 µM: 0.5 h
[1] = 10 µM, Figure 1A raw data, read-out: DPP4 activity in library screen, Exp 1
[2] = 10 µM, Figure 1A raw data, read-out: DPP4 activity in library screen, Exp 2
[3] = 10 µM, Figure 1A raw data, read-out: DPP4 activity in library screen, Exp 3
[4] = 10 µM, mean of Exp 1-3, read-out: DPP4 activity in library screen, Mean

Chain of DPP4 (P27487 whole entry): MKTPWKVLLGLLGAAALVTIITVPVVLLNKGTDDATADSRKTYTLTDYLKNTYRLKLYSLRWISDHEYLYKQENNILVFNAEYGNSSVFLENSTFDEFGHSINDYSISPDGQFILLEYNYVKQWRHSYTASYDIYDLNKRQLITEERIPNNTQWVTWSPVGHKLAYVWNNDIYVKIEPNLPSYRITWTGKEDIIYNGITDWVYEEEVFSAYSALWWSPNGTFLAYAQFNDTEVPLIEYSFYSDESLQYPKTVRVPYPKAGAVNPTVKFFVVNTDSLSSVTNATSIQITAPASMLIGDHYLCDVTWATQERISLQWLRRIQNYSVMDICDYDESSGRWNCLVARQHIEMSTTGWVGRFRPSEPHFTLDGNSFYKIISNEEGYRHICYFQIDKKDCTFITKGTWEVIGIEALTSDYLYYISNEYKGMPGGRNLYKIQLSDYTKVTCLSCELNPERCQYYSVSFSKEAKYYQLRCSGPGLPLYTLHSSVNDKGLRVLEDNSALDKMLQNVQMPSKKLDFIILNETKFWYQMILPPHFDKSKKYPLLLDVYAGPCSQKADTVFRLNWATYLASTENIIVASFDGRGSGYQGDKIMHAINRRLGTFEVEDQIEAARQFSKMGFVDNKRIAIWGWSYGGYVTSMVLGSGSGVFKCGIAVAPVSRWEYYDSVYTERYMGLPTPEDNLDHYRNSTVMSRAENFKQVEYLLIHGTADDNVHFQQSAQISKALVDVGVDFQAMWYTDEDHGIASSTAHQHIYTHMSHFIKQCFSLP

Row | remaining activity at 10 µM [1] [%] | remaining activity at 10 µM [2] [%] | remaining activity at 10 µM [3] [%] | remaining activity at 10 µM [4] [%] | Compound | also measured
1 | 102 | 85.5 | 108 | 98.7 | COc1ccc(-c2coc3cc(O)ccc3c2=O)cc1 [Formononetin] | –
2 | 75.6 | 80.1 | 66.2 | 74 | COc1ccc(-c2cc(=O)c3c(OC)c(OC)c(OC)c(OC)c3o2)cc1 [Tangeretin] | –
3 | 93.3 | 82.6 | 90.6 | 88.8 | N[C@@H](Cc1c[nH]c2ccc(O)cc12)C(=O)O [5-hydroxytryptophan (5-HTP), 5-hydroxytryptophan] | –
4 | 66.8 | 69 | 74.6 | 70.1 | COc1ccc(-c2cc(=O)c3c(O)cc(O[C@@H]4O[C@H](CO[C@@H]5O[C@@H](C)[C@H](O)[C@@H](O)[C@H]5O)[C@@H](O)[C@H](O)[C@H]4O)cc3o2)cc1O [Diosmin] | –
5 | 106 | 94.1 | 105 | 102 | C=CCc1ccc(O)c(-c2ccc(O)c(CC=C)c2)c1 [Honokiol] | –
6 | 85.8 | 99.7 | 98 | 94.5 | CC(C)Oc1ccc2c(=O)c(-c3ccccc3)coc2c1 [Ipriflavone (Osteofix), Ipriflavone] | –
7 | – | – | 31.6 | – | O=C(/C=C/c1ccc(O)cc1)c1ccc(O)cc1O [Isoliquiritigenin] | –
8 | 93.4 | 98.3 | 118 | 103 | C[C@H](NCc1ccc(OCc2cccc(F)c2)cc1)C(N)=O [Safinamide] | –
9 | 62.7 | 62.1 | 72.1 | 65.6 | O=c1c(O)c(-c2ccc(O)c(O)c2)oc2cc(O)cc(O)c12 [Quercetin] | –
10 | 114 | 102 | 73.5 | 96.3 | COc1c(O)cc2c(c1O)[C@@H]1O[C@H](CO)[C@@H](O)[C@H](O)[C@H]1OC2=O [Bergenin] | –
11 | 89.6 | 81.3 | 70 | 80.3 | OC[C@H]1O[C@@H](Oc2cc(O)cc(/C=C/c3ccc(O)cc3)c2)[C@H](O)[C@@H](O)[C@@H]1O [Polydatin] | –

Second part, the compound before the results:

Row | Compound | remaining activity at 10 µM [1] [%] | remaining activity at 10 µM [2] [%] | remaining activity at 10 µM [3] [%] | remaining activity at 10 µM [4] [%] | also measured
12 | c1cc2c(cc1[C@H]1OC[C@H]3[C@@H]1CO[C@@H]3c1ccc3c(c1)OCO3)OCO2 [Sesamin] | 93.7 | 90 | 85.5 | 89.7 | –
13 | O=c1ccc2cc(O[C@@H]3O[C@H](CO)[C@@H](O)[C@H](O)[C@H]3O)c(O)cc2o1 [Esculin] | – | – | – | – | DPP4 activity in library screen, Mean (10 µM, mean of Exp 1-3): auto-fluorescence
14 | COc1ccc([C@@H]2CC(=O)c3c(O)cc(O[C@@H]4O[C@H](CO)[C@@H](O)[C@H](O)[C@H]4O[C@@H]4O[C@@H](C)[C@H](O)[C@@H](O)[C@H]4O)cc3O2)cc1O [Neohesperidin] | – | – | – | – | DPP4 activity in library screen, Exp 1 (10 µM, Figure 1A raw data): 93.8; DPP4 activity in library screen, Exp 2 (10 µM, Figure 1A raw data): 90.3; DPP4 activity in library screen, Exp 3 (10 µM, Figure 1A raw data): 71.8; DPP4 activity in library screen, Mean (10 µM, mean of Exp 1-3): 85.3
15 | CC1(C)[C@@H](O)CC[C@]2(C)[C@H]3C(=O)C=C4[C@@H]5C[C@@](C)(C(=O)O)CC[C@]5(C)CC[C@@]4(C)[C@]3(C)CC[C@@H]12 [Enoxolone] | 84.3 | 87 | 95.5 | 88.9 | –
16 | COc1ccc(-c2coc3cc(O)cc(O)c3c2=O)cc1 [Biochanin A] | – | – | – | – | DPP4 activity in library screen, Exp 1 (10 µM, Figure 1A raw data): 94.6; DPP4 activity in library screen, Exp 2 (10 µM, Figure 1A raw data): 100.9; DPP4 activity in library screen, Exp 3 (10 µM, Figure 1A raw data): 85.2; DPP4 activity in library screen, Mean (10 µM, mean of Exp 1-3): 93.6
17 | C[N+](C)(C)CC(O)CC(=O)O.[Cl-] (racemic) [DL-Carnitine HCl] | – | – | – | – | DPP4 activity in library screen, Exp 1 (10 µM, Figure 1A raw data): 97.3; DPP4 activity in library screen, Exp 2 (10 µM, Figure 1A raw data): 93.1; DPP4 activity in library screen, Exp 3 (10 µM, Figure 1A raw data): 99.1; DPP4 activity in library screen, Mean (10 µM, mean of Exp 1-3): 96.5
18 | O=C(CCc1ccc(O)cc1)c1c(O)cc(O)cc1O [Phloretin] | 78.9 | 90.5 | 55.2 | 74.9 | –
19 | O=c1c2ccccc2oc2ccccc12 [Xanthone] | 88.9 | 79.9 | 77.7 | 82.2 | –
20 | C[C@@H]1CC[C@@]2(OC1)O[C@H]1C[C@H]3[C@@H]4CC=C5C[C@@H](O[C@@H]6O[C@H](CO)[C@@H](O[C@@H]7O[C@@H](C)[C@H](O)[C@@H](O)[C@H]7O)[C@H](O)[C@H]6O[C@@H]6O[C@@H](C)[C@H](O)[C@@H](O)[C@H]6O)CC[C@]5(C)[C@H]4CC[C@]3(C)[C@H]1[C@@H]2C [Dioscin] | 100 | 100 | 79.1 | 93.1 | –
21 | xenoclauxin | – | – | – | – | DPP4 activity in library screen, Exp 1 (10 µM, Figure 1A raw data): 105.6; DPP4 activity in library screen, Exp 2 (10 µM, Figure 1A raw data): 107.6; DPP4 activity in library screen, Exp 3 (10 µM, Figure 1A raw data): 132.5; DPP4 activity in library screen, Mean (10 µM, mean of Exp 1-3): 115.2
22 | O=c1[nH]cnc2c1ncn2[C@@H]1O[C@H](CO)[C@@H](O)[C@H]1O [Inosine] | 95.4 | 94.1 | 102 | 97.2 | –
23 | COc1cc2c(cc1OC)-c1cc3ccc(OC)c(OC)c3c[n+]1CC2 [Palmatine chloride] | – | – | – | – | remaining activity at 10 µM (read-out: DPP4 activity in library screen, Exp 1, 10 µM, Figure 1A raw data): 49.5%; remaining activity at 10 µM (read-out: DPP4 activity in library screen, Exp 2, 10 µM, Figure 1A raw data): 48.9%; remaining activity at 10 µM (read-out: DPP4 activity in library screen, Exp 3, 10 µM, Figure 1A raw data): 43.9%; remaining activity at 10 µM (read-out: DPP4 activity in library screen, Mean, 10 µM, mean of Exp 1-3): 47.4%
24 | Cl.N=c1ccn2c(n1)O[C@H]1[C@H](O)[C@@H](CO)O[C@H]12 [Cyclocytidine HCl] | – | – | – | – | DPP4 activity in library screen, Exp 1 (10 µM, Figure 1A raw data): 110.3; DPP4 activity in library screen, Exp 2 (10 µM, Figure 1A raw data): 95; DPP4 activity in library screen, Exp 3 (10 µM, Figure 1A raw data): 97.8; DPP4 activity in library screen, Mean (10 µM, mean of Exp 1-3): 101.0
25 | CN(C)CCc1ccc(O)cc1 [Hordenine] | 90.7 | 95.7 | 95.6 | 94 | –
26 | C=C[C@](C)(O)CC[C@@H]1[C@@]2(C)CCCC(C)(C)[C@@H]2CC[C@@]1(C)O [Sclareol] | 80.9 | 99.9 | 71.4 | 84.1 | –
27 | OC[C@H]1O[C@@H](OCCc2ccc(O)cc2)[C@H](O)[C@@H](O)[C@@H]1O [Salidroside] | 97.1 | 97.1 | 113 | 102 | –
28 | N#C[C@H](O[C@@H]1O[C@H](CO[C@@H]2O[C@H](CO)[C@@H](O)[C@H](O)[C@H]2O)[C@@H](O)[C@H](O)[C@H]1O)c1ccccc1 [Amygdalin] | 96.2 | 94.7 | 92.1 | 94.3 | –
29 | Nc1nc2c(ncn2[C@@H]2O[C@H](CO)[C@@H](O)[C@H]2O)c(=O)[nH]1 [Guanosine] | 104 | 102 | 90.2 | 98.5 | –
30 | CC(C)(O)[C@H]1CC[C@@](C)([C@H]2[C@@H](O)C[C@@]3(C)[C@@H]4C[C@H](O[C@@H]5O[C@H](CO)[C@@H](O)[C@H](O)[C@H]5O)[C@H]5C(C)(C)[C@@H](O[C@@H]6OC[C@@H](O)[C@H](O)[C@H]6O)CC[C@@]56C[C@@]46CC[C@]23C)O1 [Astragaloside A] | – | – | – | – | DPP4 activity in library screen, Exp 1 (10 µM, Figure 1A raw data): 103.8; DPP4 activity in library screen, Exp 2 (10 µM, Figure 1A raw data): 108.8; DPP4 activity in library screen, Exp 3 (10 µM, Figure 1A raw data): 101.9; DPP4 activity in library screen, Mean (10 µM, mean of Exp 1-3): 104.8
31 | OCc1ccc(O[C@@H]2O[C@H](CO)[C@@H](O)[C@H](O)[C@H]2O)cc1 [Gastrodin] | 91 | 91.5 | 98.6 | 93.7 | –
32 | O=C1c2c(O)cc(O)cc2O[C@H](c2cc(O)c(O)c(O)c2)[C@H]1O [Dihydromyricetin] | 101 | 88.8 | 72.1 | 87.3 | –
33 | O=C(/C=C/c1ccc(O)c(O)c1)O[C@@H]1C[C@](O)(C(=O)O)C[C@@H](O)[C@H]1O [Chlorogenic Acid] | 71.3 | 81.8 | 102 | 84.9 | –
34 | CCCC[N+]1(C)[C@@H]2C[C@@H](OC(=O)[C@H](CO)c3ccccc3)C[C@H]1[C@@H]1O[C@@H]12 (stereo partly drawn) [Butylscopolamine bromide] | 97.5 | 98.7 | 78.2 | 91.5 | –
35 | O=c1c(O)c(-c2ccc(O)c(O)c2)oc2cc(O)cc(O)c12 [Quercetin Dihydrate] | – | – | – | – | DPP4 activity in library screen, Exp 1 (10 µM, Figure 1A raw data): 59.9; DPP4 activity in library screen, Exp 2 (10 µM, Figure 1A raw data): 57; DPP4 activity in library screen, Exp 3 (10 µM, Figure 1A raw data): 57.1; DPP4 activity in library screen, Mean (10 µM, mean of Exp 1-3): 58.0
36 | OCc1c[nH]c2ccccc12 [Indole-3-carbinol] | 103 | 92 | 88.7 | 94.6 | –
